For 15 compounds, IC50 results are on record in patent US5216022A, “Aromatic esters of phenylenedialkanoates as inhibitors of human neutrophil elastase” (Cortech, Inc., priority 1991, dated 1993).

This test concerns the target T1, human neutrophil elastase (HNE) (Homo sapiens, UniProt P08246).
T1 sequence (P08246 30-267): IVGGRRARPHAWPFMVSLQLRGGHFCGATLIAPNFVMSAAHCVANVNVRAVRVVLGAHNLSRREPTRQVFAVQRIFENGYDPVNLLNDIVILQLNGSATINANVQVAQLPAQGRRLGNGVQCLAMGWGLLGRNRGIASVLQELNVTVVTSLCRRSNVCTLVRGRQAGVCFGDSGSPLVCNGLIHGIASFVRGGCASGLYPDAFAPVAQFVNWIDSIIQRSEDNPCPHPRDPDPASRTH
Description: Potency (IC50 determination) against human neutrophil elastase, chromogenic substrate N-methoxysuccinyl-ala-ala-pro-val-pNA, 405 nm. The test is classed as biochemical. The following applies: pH 7.7, 7 min incubation at room temperature. Here is the method:
A) 0.075M sodium phosphate, 20% dimethyl sulfoxide (DMSO),pH 7.7=substrate and inhibitor buffer
B) 0.075M sodium phosphate no DMSO,pH7.7=inhibitor buffer
C) 10 mM human neutrophil elastase (HNE) substrate=N-methoxysuccinyl-ala-ala-pro-val-pNA in DMSO
D) 0.01 sodium acetate, pH 5.5=enzyme buffer (storage)
E) HNE (1 mg) dissolved in 1 mL of […] for storage at -20° C.
Make a 10 mM stock of the inhibitor in DMSO. Dilute an aliquot (10 μL) up to 1.0 mL in reagent A (100 μM). Serially dilute 100 μL of the 100 μM in reagent A. Apply 100 μL of the diluted material to the wells of a 96-well plate. Dilute an aliquot of reagent F 1:150 in reagent D, apply 50 μL aliquots to the indicator wells and incubate 7 minutes at room temperature.
The HNE substrate solution is made by taking 100 μl of reagent C into 500 μL of reagent A and 400 μL of reagent B. After the 7 minutes of incubation, the substrate (50 μL) is applied to each well. The HNE catalyzed reaction is then monitored spectrophotometrically at 405 nm using an ELISA plate reader machine (UVMAX, Molecular Devices) which processes the raw data with an on-board kinetics program. The enzyme activity is plotted against different inhibitor concentrations and IC50 value is determined by using a curve fitting software program.

As a reminder, the IC50 is the point on the concentration scale where inhibition reaches its midpoint. Read a low IC50 as greater potency. `CCC(C(=O)Oc1ccc(SCC(C)(C)C(=O)O)cc1)c1cccc(C(CC)C(=O)Oc2ccc(SCC(C)(C)C(=O)O)cc2)c1` (stereo not drawn) [Compound 19]: half-maximal inhibition (IC50) required 198 nM.
As for `CCC(C(=O)Oc1ccc(S(C)(=O)=O)cc1)c1ccc(C(CC)C(=O)Oc2ccc(S(C)(=O)=O)cc2)cc1` (stereo not drawn) [Compound 3], the IC50 is 62 nM.
On to `CCC(C(=O)Oc1ccc([S+](C)[O-])cc1)c1ccc(C(CC)C(=O)Oc2ccc([S+](C)[O-])cc2)cc1` (stereo not drawn) [Compound 2], for which the IC50 turned out to be 224 nM.
In turn, `CCC(C(=O)Oc1ccc(S(=O)(=O)CC(C)(C)C(=O)O)cc1)c1cccc(C(CC)C(=O)Oc2ccc(S(=O)(=O)CC(C)(C)C(=O)O)cc2)c1` (stereo not drawn) [Compound 21] yielded an IC50 of 36 nM.
`CCC(C(=O)Oc1ccc(SCC(C)(C)C(=O)O)cc1)c1ccc(C(CC)C(=O)Oc2ccc(SCC(C)(C)C(=O)O)cc2)cc1` (stereo not drawn) [Compound 4] returned a half-inhibitory concentration (IC50) of 120 nM. Against the preceding compound, the IC50 is about 3.3-fold higher.
Regarding `CCC(C(=O)Oc1ccc(S(=O)(=O)CC(C)(C)C(=O)O)cc1)c1ccc(C(CC)C(=O)Oc2ccc(S(=O)(=O)CC(C)(C)C(=O)O)cc2)cc1` (stereo not drawn) [Compound 6], 28 nM corresponded to half-maximal inhibition (IC50).
The same measure for `CCC(C(=O)Oc1ccc([S+]([O-])C(C)(C)C(=O)O)cc1)c1ccc(C(CC)C(=O)Oc2ccc([S+]([O-])C(C)(C)C(=O)O)cc2)cc1` (stereo not drawn) [Compound 8]: 74 nM; for `CCC(C(=O)Oc1ccc(SC)cc1)c1ccc(C(CC)C(=O)Oc2ccc(SC)cc2)cc1` (stereo not drawn) [Compound 1, Bis(4-Methylmercaptophenyl)2'-(1,4-phenylene)dibutyrate]: 8440 nM.
In turn, `CC(C)(C[S+]([O-])c1ccc(OC(=O)C(C)(C)c2ccc(C(C)(C)C(=O)Oc3ccc([S+]([O-])CC(C)(C)C(=O)O)cc3)cc2)cc1)C(=O)O` (stereo not drawn) [Compound 11] had an IC50 of 23 nM.
Then `CC(C)(C(=O)Oc1ccc(SCC(=O)O)cc1)c1ccc(C(C)(C)C(=O)Oc2ccc(SCC(=O)O)cc2)cc1` [Compound 13], with 835 nM.
On to `CCC(C(=O)Oc1ccnc(SC)n1)c1ccc(C(CC)C(=O)Oc2ccnc(SC)n2)cc1` (stereo not drawn) [Compound 28], for which the IC50 is 64 nM.
As for `CC(C)(C(=O)Oc1ccc(S(=O)(=O)CC(=O)O)cc1)c1ccc(C(C)(C)C(=O)Oc2ccc(S(=O)(=O)CC(=O)O)cc2)cc1` [Compound 15], it took 77 nM to reach half-maximal inhibition (IC50). This IC50 and that of the compound before are within 1.5-fold of each other.
Compound `CC(C)(CSc1ccc(OC(=O)C(C)(C)c2ccc(C(C)(C)C(=O)Oc3ccc(SCC(C)(C)C(=O)O)cc3)cc2)cc1)C(=O)O` [Compound 10] gave an IC50 of 253 nM.
The same measure for `CCC(C(=O)Oc1ccc(S(=O)(=O)C(C)(C)C(=O)O)cc1)c1ccc(C(CC)C(=O)Oc2ccc(S(=O)(=O)C(C)(C)C(=O)O)cc2)cc1` (stereo not drawn) [Compound 9]: 37 nM.
Take `CCC(C(=O)Oc1ccc([S+]([O-])CC(C)(C)C(=O)O)cc1)c1ccc(C(CC)C(=O)Oc2ccc([S+]([O-])CC(C)(C)C(=O)O)cc2)cc1` (stereo not drawn) [Compound 5]: half-maximal inhibition (IC50) was put at 40 nM.
